Earlier results, collected in patent US20060210638A1, “Injectable compositions of nanoparticulate immunosuppressive compounds” (Elan Pharma International Limited, priority 2005, published 2006).
Like-named read-outs stand apart in the source and are kept apart here. Values belong to the compound of their own block, whether it stands above or below them.

How the values were obtained:
[1] = in vitro studies
[2] = for mean time-to-peak concentration (Tmax): Rapamune Oral Solution
[3] = not given; remark: listed apart in the source
[4] = not given; remark: listed apart in the source
[5] = for reduction of mean AUC relative to fasted / reduction of mean Cmax relative to fasted: healthy volunteers (N=16)
[6] = for mean clearance: IV administration
[7] = reputed
[8] = 11 liver transplant patients, 15 minutes after high fat (400 kcal, 34% fat) breakfast
[9] = given immediately following the meal
[10] = high-carbohydrate meal (668 kcal, 85% carbohydrate)
[11] = high-fat meal (848 kcal, 46% fat), 15 healthy volunteers

Structure (SMILES): C=CCC1C=C(C)CC(C)CC(OC)C2OC(O)(C(=O)C(=O)N3CCCCC3C(=O)OC(C(C)=CC3CCC(O)C(O)C3)C(C)C(O)CC1=O)C(C)CC2OC (stereo not shown) [31-demethyl metabolite]
activity relative to tacrolimus (in words) [1]: same activity as tacrolimus

stability when exposed to water (in words) (aqueous medium): rapidly hydrolyzes
solubility in benzyl alcohol, chloroform, acetone, and acetonitrile (in words) (benzyl alcohol, chloroform, acetone, acetonitrile): freely soluble
solubility in water (water): 20 micrograms per mL
solubility in water (in words) (water): insoluble
mean time-to-peak concentration (Tmax) ([2]; multiple oral doses, renal transplant recipients): approximately 2 hours
mean time-to-peak concentration (Tmax) ([2]; single dose, healthy subjects): approximately 1 hour
systemic availability ([2]; after Rapamune Oral Solution): approximately 14%
Structure (SMILES): CO[C@H]1C[C@@H]2CC[C@@H](C)[C@@](O)(O2)C(=O)C(=O)N2CCCC[C@H]2C(=O)O[C@H]([C@H](C)C[C@@H]2CC[C@@H](O)[C@H](OC)C2)CC(=O)[C@H](C)/C=C(\C)[C@@H](O)[C@@H](OC)C(=O)[C@H](C)C[C@H](C)/C=C/C=C/C=C/1C [Sirolimus, (3S,6R,7E,9R,10R,12R,14S,15E,17E,19E,21S,23S,26R,27R ,34aS)-9,10,12,13,14,21,22,23,24,25,26,27,32,33,34,34a-hexadecahydro-9,27-dihydroxy-3-[(1 R )-2-[(1S,3R,4R)-4-hydroxy-3-methoxycyclohexyl]-1-methylethyl]-10,21-dimethoxy-6,8,12,14,20,26-hexamethyl-23,27-epoxy-3H-pyrido[2,1-c] [1,4] oxaazacyclohentriacontine-1,5,11,28,29(4H,6H,31H)-pentone]

ratio of whole blood concentration to plasma concentration, average ([3]; U.S. study): 35
plasma protein binding ([3]; independent of concentration over 5-50 ng/mL): approximately 99%
clearance of tacrolimus ([4]; IV): 0.483 ± 0.15 mL/min/kg
elimination half-life based on tacrolimus concentrations ([4]; IV): 43.5 ± 11.6 h
fecal elimination ([4]; IV): 92.4±1.0%
mean recovery of radiolabel ([4]; IV, 6 healthy volunteers): 77.8±12.7%
clearance of tacrolimus ([4]; oral): 2.87 ± 1.47 mL/min/kg
elimination half-life based on tacrolimus concentrations ([4]; oral): 48.4 ± 12.3 h
fecal elimination ([4]; oral): 92.6±30.7%
mean recovery of the radiolabel ([4]; oral): 94.9±30.7%
urinary elimination ([4]; oral): 2.3±1.1%
solubility in ethanol (in words) (ethanol): freely soluble
solubility in methanol and chloroform (in words) (methanol and chloroform): very soluble
solubility in water (in words) (water): practically insoluble
decreased AUC compared to fasted state [5, 8]: 27±18%
decreased Cmax compared to fasted state [5, 8]: 50±19%
reduction of mean AUC relative to fasted ([5]; 1.5 hours following the meal): 39%
reduction of mean Cmax relative to fasted ([5]; 1.5 hours following the meal): 63%
reduction of mean AUC relative to fasted [5, 9]: 39%
reduction of mean Cmax relative to fasted [5, 9]: 71%
decrease of mean AUC [5, 10]: 28%
decrease of mean Cmax [5, 10]: 65%
Tmax lengthened [5, 11]: 5 fold
decrease of mean AUC [5, 11]: 37%
decrease of mean Cmax [5, 11]: 77%
correlation coefficient of trough concentration (Cmin) with AUC ([6]; 18 kidney transplant patients, trough 3 to 30 ng/mL at 10-12 hours post-dose): 0.93
correlation coefficient of trough concentration (Cmin) with AUC ([6]; 24 liver transplant patients, concentration range 10 to 60 ng/mL): 0.94
mean clearance ([6]; adult kidney transplant patients): 1.38 mL/min/kg
mean clearance ([6]; adult liver transplant patients): 0.883 mL/min/kg
mean clearance ([6]; healthy volunteers): 0.667 mL/min/kg
dose excreted unchanged in urine ([6]; in man): less than 1%
Structure (SMILES): C=CC[C@@H]1/C=C(\C)C[C@H](C)C[C@H](OC)[C@H]2O[C@@](O)(C(=O)C(=O)N3CCCC[C@H]3C(=O)O[C@H](/C(C)=C/[C@@H]3CC[C@@H](O)[C@H](OC)C3)[C@H](C)[C@@H](O)CC1=O)[C@H](C)C[C@@H]2OC [Tacrolimus]
effectiveness relative to cyclosporine [7]: 100 times
